Like-named read-outs stand apart in the source and are kept apart here.
Experiments:
[1] = system: serum cholesterol, LDL, HDL, triglycerides; assay: Serum lipids and lipoprotein cholesterol in cholesterol-fed female New Zealand White rabbits; assay type: in vivo; conditions: Oryctolagus cuniculus, po, 168 h, rabbit serum, diet 0.4%, 7 days
Experimental: (§1) Five independent experiments were performed in the following manner. […] Female New Zealand White rabbits (Hazelton, ~2.0-2.3 kg) were fed 0.2% cholesterol enriched rabbit chow (Purina #5322) with or without 0.4% MDL compound (except, MDL 108,804 at 0.26% and MDL 103,491 repeated at 0.6%). The MDL compounds were solubilized in 100% ethanol. MDL 108,208 was not soluble in 100% ethanol, but it was soluble in diethyl ether:ethanol (3:2 by volume). The chow was sprayed with the MDL mixtures and allowed to dry overnight in a chemical fume hood. Control chow was sprayed with ethanol. Rabbits were fed 100 grams food per day for 7 days (0.6% MDL 103,491 were fed for 14 days); water was available ad libitum. On day 7, rabbits (fasted overnight) were bled (~2 mL) from marginal ear vein; 0.6% MDL 103,491 treated rabbits were tested on day 14. They were euthanized by carbon dioxide overdose. The total body and liver weights were recorded in grams. Food consumption was recorded as grams.cndot.day^-1 .cndot.rabbit^-1. Aliquots of fresh serum were used for clinical chemistries, lipoprotein cholesterol determination, thiobarbituric acid reactive substances (TBARS) and compound and metabolite concentrations in serum. Livers (~5 gram aliquots) were frozen at -20° C. for compound and metabolite concentration determination at a later time.
Blood was allowed to clot at room temperature for 30 minutes. Serum was obtained after centrifugation for 10 min at 5° C. at 3000 rpm in a Beckman GPKR centrifuge with a GH rotor. Fresh serum was analyzed by a COBAS MIRA autoanalyzer (Roche Diagnostics) using Roche diagnostic reagents for total cholesterol (CHOL, kit #44334) and triglyceride (TG, kit #44120). Cholesterol and triglycerides were calculated as mg/dL.
Lipoprotein fractions (very low density lipoprotein, VLDL, low density lipoprotein, LDL and high density lipoprotein, HDL) were separated on a Sepharose 6HR column (1×30 cm, Pharmacia) attached to a Waters Powerline HPLC system. Fifty μL of serum were injected onto the column and eluted with phosphate buffered saline, pH 7.4, at a flow rate of 0.5 mL/min. Cholesterol reagent (Roche Diagnostics, kit #44334, diluted with 20 mL water and then with 20 mL of 0.9% saline) was added at 0.2 mL/min to the post column eluant and incubated in a knitted PFTE Kratos reaction coil (Applied Biosystems) at 37° C. for 5 min. Absorbance was measured at 500 nm. The lipoprotein subfractions were quantitated as follows: [formula]

[2] = system: oxidation of serum lipids; assay: TBARS assay, serum of cholesterol-fed rabbits; assay type: in vivo, female New Zealand White rabbits; conditions: Oryctolagus cuniculus, po, 168 h; rabbit serum, diet 0.4%, 7 days; read-out: TBARS, percent of control
Experimental: as §1
TBARS are a qualitative indication of the oxidation of lipids in a sample. In this assay the oxidation of serum lipids is initiated with CuSO4, resulting in the formation of aldehydes, such as malondialdehyde (MDA). Upon incubation with thiobarbituric acid, the absorbance of the aldehydes can be detected at 530-540 nm. TBARS values which are lower than control serum values indicate the relative ability of a compound to inhibit the oxidation. TBARS were measured as follows: 50 μL of serum were mixed with 50 μL of 0.9% saline and 400 μL of a 5 mM CuSO4 solution and incubated at 37° C. for 5 hr. The reactions were stopped by addition of 1.0 mL of 20% trichloroacetic acid. Then 1.0 mL of 0.67% thiobarbituric acid in 0.05N sodium hydroxide was added, mixed, and the samples incubated for 30 min at 90° C. Samples were centrifuged briefly to pellet undissolved material, and the supernatants were transferred to a 96-well microtiter plate. Absorbances were measured at 540 nm using a Biotek model EL311 microplate reader. The nmoles of MDA produced were calculated from a standard curve of 0 to 10 nmoles of MDA prepared from malonaldehyde bis(dimethylacetal). Serum samples from treated rabbits were compared to serum samples from control rabbits that received no MDL compound.

[3] = Food consumption, body and liver weight in cholesterol-fed rabbits; assay type: in vivo, female New Zealand White rabbits; conditions: diet 0.4%, 7 days
Experimental: as §1

[4] = HPLC quantitation of compound and metabolite concentration in rabbit serum and liver; assay type: in vivo, female New Zealand White rabbits; conditions: diet 0.4%, 7 days
Experimental: as §1
Serum and liver concentrations of parent compounds and the metabolites, bisphenol and diphenoquinone, were determined by reverse phase HPLC using a Waters 990 Powerline system. Livers (1 gram) were homogenized with 5.0 mL PBS, pH 7.4, using a Polytron tissue homogenizer at setting 5 for 20-30 seconds. Serum or liver homogenates were extracted as follows: 100 μL of either serum or homogenate were added to 2.0 mL diethyl ether:ethanol (3:1) while vortexing the tube. The sample tubes were capped and centrifuged for 10 min at 5° C. at 3500 rpm in a Beckman GPKR centrifuge with a GH 3.7 rotor. The supernatants were transferred to clean tubes and dried under N2. Samples were reconstituted with 200 μL of acetonitrile:hexane:0.1M ammonium acetate (90:6.5:3.5, by vol.). Then, 100 μL were injected onto a Waters Deltapak C18-300 Å column, and eluted with an 83% acetonitrile:17% water mobile phase at a flow rate of 1.5 mL/min. Absrobances at the wavelengths of 240, 254, and 420 nm were recorded. Compound concentrations were calculated from known quantities of authentic parent compounds after correction for recovery; the range of recovery from spiked samples was 40 to 100%. The lowest detectable limit for this class of compounds was ~0.5 μg/mL. Concentrations were calculated as μg/mL of serum and μg/g of liver.

[5] = Solubility in solvent for spraying on chow; assay type: physicochemical
Experimental: as §1

Structure (SMILES): COc1ccc([Si](C)(COc2cc(C(C)(C)C)c(O)c(C(C)(C)C)c2)c2ccc(OC)cc2)cc1 [MDL 108,208]
- response vs control in vivo at 0.4 % ([1]; read-out: HDL cholesterol, percent of control): 97%
- response vs control in vivo at 0.4 % ([1]; read-out: LDL cholesterol, percent of control): 117%
- response vs control in vivo at 0.4 % ([1]; read-out: TRIG (triglycerides), percent of control): 107%
- response vs control in vivo at 0.4 % ([1]; read-out: chol tot. (total cholesterol), percent of control): 109%
- response vs control in vivo at 0.4 % [2]: 89%
- food (grams eaten per day per rabbit), percent of control [3]: 100%
- body wt., percent of control ([3]; rabbit): 97%
- lw/bw (liver weight/body weight), percent of control ([3]; rabbit): 103%
- Liver Parent = parent compound concentration ([4]; rabbit liver): 0 µg/g
- Serum Parent = parent compound concentration ([4]; rabbit serum): 0 µg/mL
- solubility in 100% ethanol ([5]; 100% ethanol): not soluble
- solubility in diethyl ether:ethanol ([5]; diethyl ether:ethanol (3:2 by volume)): soluble

From US5608095A, “Alkyl-4-silyl-phenols and esters thereof as antiatherosclerotic agents” (Hoechst Marion Roussel, Inc., priority 1996, dated 1997)
